Laboratory results from patent US8415469B2, “Compounds and methods for kinase modulation, and indications therefor” (Plexxikon Inc., priority 2005, dated 2013).

What was measured:
Assay type in all cases: biochemical
FGFR1 = biological target: T1, FGFR1 (Homo sapiens, UniProt P11362, C488A/C584S); experiment: AlphaScreen kinase assay, FGFR1; conditions: read-out: IC50, activity toward kinase FGFR
T1 construct: P1351.pET N6 BI-PTP FGFR A458-E765-X C488A, C584S; made in house; host or cells: E. coli (PTP1B co-expressed)
T1 sequence (P11362 458-765 C488A/C584S): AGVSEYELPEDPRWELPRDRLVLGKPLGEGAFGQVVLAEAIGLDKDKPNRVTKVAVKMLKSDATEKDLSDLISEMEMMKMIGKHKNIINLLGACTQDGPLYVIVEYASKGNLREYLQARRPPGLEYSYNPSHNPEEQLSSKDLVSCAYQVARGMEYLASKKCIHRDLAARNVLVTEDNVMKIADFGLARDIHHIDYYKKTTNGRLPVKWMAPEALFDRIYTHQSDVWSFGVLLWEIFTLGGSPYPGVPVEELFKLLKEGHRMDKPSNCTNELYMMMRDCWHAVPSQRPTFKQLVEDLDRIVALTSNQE

Flt1 = biological target: T2, Flt1 (Homo sapiens, UniProt P17948); experiment: AlphaScreen kinase assay, Flt1; conditions: read-out: IC50, activity toward kinase Flt1
T2 construct: P1826.pETN6 BI-PTP FLT1 M799-D1165-X WT; His6 (N); made in house; host or cells: E. coli (PTP1B co-expressed)
T2 sequence (P17948 with tags, fused parts or gaps): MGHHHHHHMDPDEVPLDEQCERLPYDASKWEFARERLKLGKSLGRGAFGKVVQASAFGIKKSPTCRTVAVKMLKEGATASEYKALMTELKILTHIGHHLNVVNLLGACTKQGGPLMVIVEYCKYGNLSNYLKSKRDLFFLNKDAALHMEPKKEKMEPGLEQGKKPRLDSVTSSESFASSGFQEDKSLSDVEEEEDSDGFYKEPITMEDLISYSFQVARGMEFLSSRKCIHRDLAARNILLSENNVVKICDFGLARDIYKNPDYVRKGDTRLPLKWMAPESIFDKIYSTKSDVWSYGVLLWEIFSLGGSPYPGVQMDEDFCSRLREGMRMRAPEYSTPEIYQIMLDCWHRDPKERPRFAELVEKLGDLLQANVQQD

B-Raf V600E = biological target: T3, B-Raf V600E (Homo sapiens, UniProt P15056, V600E); experiment: AlphaScreen kinase assay, B-Raf V600E; conditions: read-out: IC50, activity toward kinase B-Raf V600E
T3 construct: P4254. pFastBacBD-CDC37 BRAF D437-K722-X, V600E; His6 with pFastBac HT leader (TEV site) (N); made in house; host or cells: Sf9 (baculovirus; chaperone CDC37 co-expressed)
T3 sequence (P15056 with tags, fused parts or gaps V600E): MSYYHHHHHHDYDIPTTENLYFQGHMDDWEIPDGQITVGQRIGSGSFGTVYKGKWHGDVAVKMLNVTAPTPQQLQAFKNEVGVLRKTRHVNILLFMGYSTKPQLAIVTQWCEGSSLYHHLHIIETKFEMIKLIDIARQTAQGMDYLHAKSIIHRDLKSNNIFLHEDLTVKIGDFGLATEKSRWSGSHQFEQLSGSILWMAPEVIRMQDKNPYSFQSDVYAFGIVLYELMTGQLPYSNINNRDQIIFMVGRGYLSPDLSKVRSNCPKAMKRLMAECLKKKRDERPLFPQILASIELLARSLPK

Kit = biological target: T4, Kit (Homo sapiens, UniProt P10721); experiment: AlphaScreen kinase assay, Kit; conditions: read-out: IC50, activity toward kinase Kit
T4 construct: P1332.N6 BI PTP KIT M552-K948-X COD; His6 (N); made in house; host or cells: E. coli (PTP1B co-expressed)
T4 sequence (P10721 with tags, fused parts or gaps): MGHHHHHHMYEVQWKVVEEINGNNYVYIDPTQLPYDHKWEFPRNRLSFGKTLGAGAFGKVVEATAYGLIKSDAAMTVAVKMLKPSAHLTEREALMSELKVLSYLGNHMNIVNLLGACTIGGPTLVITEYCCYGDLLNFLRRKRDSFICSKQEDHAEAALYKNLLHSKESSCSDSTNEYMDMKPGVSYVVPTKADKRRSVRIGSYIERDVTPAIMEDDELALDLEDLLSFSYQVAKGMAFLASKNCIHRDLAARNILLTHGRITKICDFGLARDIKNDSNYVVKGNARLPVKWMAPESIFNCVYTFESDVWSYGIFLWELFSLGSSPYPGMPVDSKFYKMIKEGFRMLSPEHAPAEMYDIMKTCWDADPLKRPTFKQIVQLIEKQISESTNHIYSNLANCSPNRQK

Ret = biological target: T5, Ret (Homo sapiens, UniProt P07949); experiment: AlphaScreen kinase assay, Ret; conditions: read-out: IC50, activity toward kinase Ret
T5 construct: P1378.pET-SF BI-PTP RET H661-R1012 HIS; made in house
T5 sequence (P07949 with tags, fused parts or gaps): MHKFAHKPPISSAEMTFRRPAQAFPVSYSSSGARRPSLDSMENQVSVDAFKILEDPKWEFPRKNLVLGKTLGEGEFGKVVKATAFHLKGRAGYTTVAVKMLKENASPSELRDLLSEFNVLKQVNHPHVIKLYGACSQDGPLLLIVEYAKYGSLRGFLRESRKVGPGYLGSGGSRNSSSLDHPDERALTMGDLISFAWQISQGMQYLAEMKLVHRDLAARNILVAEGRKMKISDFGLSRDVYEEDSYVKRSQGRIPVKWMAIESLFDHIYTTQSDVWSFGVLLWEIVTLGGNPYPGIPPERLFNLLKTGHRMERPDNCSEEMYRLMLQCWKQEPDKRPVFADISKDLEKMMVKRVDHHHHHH

Fms = biological target: T6, Fms (Homo sapiens, UniProt P07333); experiment: AlphaScreen kinase assay, Fms; conditions: read-out: IC50, activity toward kinase Fms
T6 construct: purchased Upstate Biotechnology
T6 sequence (P07333 20-972): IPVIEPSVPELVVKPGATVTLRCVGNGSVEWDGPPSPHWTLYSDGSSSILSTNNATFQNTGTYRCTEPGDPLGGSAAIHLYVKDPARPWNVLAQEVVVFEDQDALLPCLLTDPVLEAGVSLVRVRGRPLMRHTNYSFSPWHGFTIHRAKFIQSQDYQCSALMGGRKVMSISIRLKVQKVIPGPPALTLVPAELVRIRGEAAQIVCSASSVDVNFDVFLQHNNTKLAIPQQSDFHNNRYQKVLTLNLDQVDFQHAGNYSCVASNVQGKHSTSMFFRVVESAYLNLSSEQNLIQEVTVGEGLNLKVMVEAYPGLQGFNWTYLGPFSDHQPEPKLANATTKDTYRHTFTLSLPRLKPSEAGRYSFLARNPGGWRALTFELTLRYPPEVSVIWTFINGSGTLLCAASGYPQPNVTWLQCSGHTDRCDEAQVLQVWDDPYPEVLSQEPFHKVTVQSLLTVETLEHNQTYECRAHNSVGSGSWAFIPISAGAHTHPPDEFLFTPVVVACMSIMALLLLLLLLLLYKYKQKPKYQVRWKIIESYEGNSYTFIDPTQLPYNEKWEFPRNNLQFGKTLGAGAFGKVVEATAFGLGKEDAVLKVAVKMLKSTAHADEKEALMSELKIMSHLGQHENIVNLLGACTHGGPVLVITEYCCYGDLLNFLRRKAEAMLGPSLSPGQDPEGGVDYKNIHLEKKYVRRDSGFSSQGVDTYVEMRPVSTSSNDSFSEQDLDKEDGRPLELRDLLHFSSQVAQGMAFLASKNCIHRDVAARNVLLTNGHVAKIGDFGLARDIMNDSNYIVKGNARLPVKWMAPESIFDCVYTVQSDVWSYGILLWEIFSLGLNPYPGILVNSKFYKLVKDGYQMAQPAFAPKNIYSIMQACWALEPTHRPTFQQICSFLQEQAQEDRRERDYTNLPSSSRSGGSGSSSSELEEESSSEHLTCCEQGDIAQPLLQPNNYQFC

| IC50 (FGFR1) | IC50 (Flt1) | IC50 (B-Raf V600E) | IC50 (Kit) | IC50 (Ret) | IC50 (Fms) | SMILES |
| --- | --- | --- | --- | --- | --- | --- |
| ≤ 10 µM | ≤ 10 µM |  |  |  |  | CN(C)c1ccc(Cc2c[nH]c3ncccc23)cc1 [Compound P-0150] |
| ≤ 10 µM |  | ≤ 10 µM | ≤ 10 µM | ≤ 10 µM |  | COc1ccc(C(=O)c2c[nH]c3ncc(-c4cccs4)cc23)c(Cl)c1 [Compound P-0248] |
| ≤ 10 µM |  |  | ≤ 10 µM | ≤ 10 µM |  | COc1cccc(C(=O)c2c[nH]c3ncc(Br)cc23)c1 [Compound P-0341] |
| ≤ 10 µM |  | ≤ 10 µM |  | ≤ 10 µM |  | O=C(c1c(F)cccc1F)c1c[nH]c2nccc(-c3cc(F)cc(F)c3)c12 [Compound P-0344] |
| ≤ 10 µM |  |  | ≤ 10 µM | ≤ 10 µM |  | Clc1ccc(Cc2c[nH]c3ncc(-c4ccsc4)cc23)cn1 [Compound P-0385] |
| ≤ 10 µM |  |  | ≤ 10 µM | ≤ 10 µM |  | COc1cccc(Cc2c[nH]c3ncc(-c4ccsc4)cc23)c1 [Compound P-0392] |
|  | ≤ 10 µM |  |  |  | ≤ 10 µM | O=C(c1ccc(NCc2ccc(C(F)(F)F)cc2)nc1)c1c[nH]c2ncccc12 [Compound P-0461] |
|  | ≤ 10 µM |  |  |  |  | Fc1ccc(-c2c[nH]c3ncccc23)c(F)c1 [Compound P-0470] |
|  | ≤ 10 µM |  |  |  | ≤ 10 µM | O=C(c1ccc(NCc2ccc(F)cc2)nc1)c1c[nH]c2ncccc12 [Compound P-0491] |
|  | ≤ 10 µM |  |  |  |  | c1ccc(C(CNCc2c[nH]c3ncccc23)c2ccccc2)cc1 [Compound P-0514] |
| ≤ 10 µM |  |  | ≤ 10 µM | ≤ 10 µM |  | O=C(c1ccccc1)c1c[nH]c2ncc(Br)cc12 [Compound P-0561] |
|  | ≤ 10 µM | ≤ 10 µM |  |  |  | O=S(=O)(NCc1c[nH]c2ncccc12)c1cc(Cl)sc1Cl [Compound P-0603] |
|  |  |  | ≤ 10 µM | ≤ 10 µM |  | O=C(c1cc(Cl)ccc1F)c1c[nH]c2ncc(-c3cccs3)cc12 [Compound P-0644] |
| ≤ 10 µM |  |  | ≤ 10 µM | ≤ 10 µM |  | O=C(c1cc(F)ccc1F)c1c[nH]c2ncc(-c3ccsc3)cc12 [Compound P-0699] |
|  | ≤ 10 µM |  |  |  | ≤ 10 µM | c1ccc(CNc2ccc(Cc3c[nH]c4ncccc34)cn2)cc1 [Compound P-0733] |
|  |  |  | ≤ 10 µM | ≤ 10 µM |  | O=C(c1ccccc1)c1c[nH]c2ncc(Br)c([N+](=O)[O-])c12 [Compound P-0736] |
|  | ≤ 10 µM |  |  |  |  | Cc1ccccc1S(=O)(=O)NCc1c[nH]c2ncccc12 [Compound P-0768] |
|  |  | ≤ 10 µM | ≤ 10 µM | ≤ 10 µM |  | COc1cccc(Cc2c[nH]c3nccc(-c4ccsc4)c23)n1 [Compound P-0810] |
|  |  |  | ≤ 10 µM | ≤ 10 µM |  | Cc1cc(C(=O)c2c[nH]c3ncc(-c4cccc(NS(C)(=O)=O)c4)cc23)n(C)n1 [Compound P-0825] |
| ≤ 10 µM |  |  | ≤ 10 µM | ≤ 10 µM | ≤ 10 µM | c1cc(Cc2c[nH]c3ncc(-c4ccsc4)cc23)cc(OCCOC2CCCCO2)c1 (stereo not shown) [Compound P-0835] |
| ≤ 10 µM |  | ≤ 10 µM |  | ≤ 10 µM |  | Cc1ccc(F)cc1C(=O)c1c[nH]c2nccc(-c3cccc(C(N)=O)c3)c12 [Compound P-0976] |

| IC50 (FGFR1) | IC50 (Flt1) | IC50 (B-Raf V600E) | IC50 (Kit) | IC50 (Ret) | IC50 (Fms) | SMILES |
| --- | --- | --- | --- | --- | --- | --- |
|  |  |  | ≤ 10 µM | ≤ 10 µM |  | O=C(c1ccc(Cl)cc1)c1c[nH]c2ncc(Br)cc12 [Compound P-1033] |
|  | ≤ 10 µM | ≤ 10 µM |  |  | ≤ 10 µM | Cc1nc(NCc2ccc(C(F)(F)F)cc2)ccc1Cc1c[nH]c2ncccc12 [Compound P-1112] |
|  | ≤ 10 µM | ≤ 10 µM | ≤ 10 µM |  |  | O=C(c1ccc(Nc2ccccc2)nc1)c1c[nH]c2ncccc12 [Compound P-1160] |
|  | ≤ 10 µM |  | ≤ 10 µM |  |  | CC(=O)Nc1cccc(-c2cnc3[nH]cc(C(=O)c4cccc(OC(F)(F)F)c4)c3c2)c1 [Compound P-1422, N-{3-[3-(3-Trifluoromethoxy-benzoyl)-1H -pyrrolo[2,3-b]pyridin-5-yl]-phenyl}-acetamide] |
| ≤ 10 µM | ≤ 10 µM |  | ≤ 10 µM |  |  | CC(=O)Nc1cccc(-c2cnc3[nH]cc(C(=O)c4cccc(OC(F)F)c4)c3c2)c1 [Compound P-1424, N-{3-[3-(3-Difluoromethoxy-benzoyl)-1H-pyrrolo[2,3-b]pyridin-5-yl]-phenyl}-acetamide] |
|  | ≤ 10 µM |  |  |  | ≤ 10 µM | Clc1ccc(Nc2c[nH]c3ncccc23)cc1 [Compound P-1491, (4-Chloro-phenyl)-(1H-pyrrolo[2,3-b]pyridin-3-yl)-amine] |
|  | ≤ 10 µM |  |  |  |  | CCOc1ccccc1C(O)c1c[nH]c2ncc(-c3cccnc3)cc12 (stereo not shown) [Compound P-1533] |
|  | ≤ 10 µM |  | ≤ 10 µM |  |  | O=C(c1ccc(Cl)cc1Cl)c1c[nH]c2ncc(-c3ccccc3)cc12 [Compound P-1557] |
|  | ≤ 10 µM |  |  |  | ≤ 10 µM | CCCCNC(=O)Nc1ccc(F)c(Cc2c[nH]c3ncc(OC)cc23)c1F [Compound P-1571, 1-Butyl-3-[2,4-difluoro-3-(5-methoxy-1H-pyrrolo[2,3-b]pyridin-3-ylmethyl)-phenyl]-urea] |
|  | ≤ 10 µM | ≤ 10 µM |  |  | ≤ 10 µM | COc1cnc2[nH]cc(Cc3c(F)ccc(NC(=O)NC4CCCC4)c3F)c2c1 [Compound P-1572, 1-Cyclopentyl-3-[2,4-difluoro-3-(5-methoxy-1H-pyrrolo[2,3-b]pyridin-3-ylmethyl)-phenyl]-urea] |
|  | ≤ 10 µM |  |  |  | ≤ 10 µM | CCCCNC(=O)Nc1ccc(F)c(Cc2c[nH]c3ncc(Cl)cc23)c1F [Compound P-1587, 1-Butyl-3-[3-(5-chloro-1H-pyrrolo[2,3-b]pyridin-3-ylmethyl)-2,4-difluoro-phenyl]-urea] |
|  | ≤ 10 µM | ≤ 10 µM |  |  | ≤ 10 µM | O=C(NCCN1CCOCC1)Nc1ccc(F)c(Cc2c[nH]c3ncc(Cl)cc23)c1F [Compound P-1594, 1-[3-(5-Chloro-1H-pyrrolo[2,3-b]pyridin-3-ylmethyl)-2,4-difluoro-phenyl]-3-(2-morpholin-4-yl-ethyl)-urea] |
|  | ≤ 10 µM | ≤ 10 µM |  |  |  | O=C(NCC(F)(F)F)Nc1ccc(F)c(Cc2c[nH]c3ncc(Cl)cc23)c1F [Compound P-1601, 1-[3-(5-Chloro-1H-pyrrolo[2,3-b]pyridin-3-ylmethyl)-2,4-difluoro-phenyl]-3-(2,2,2-trifluoro-ethyl)-urea] |
| ≤ 10 µM | ≤ 10 µM |  |  |  |  | CS(=O)(=O)Nc1ccc(F)c(Cc2c[nH]c3ncccc23)c1F [Compound P-1603, N-[2,4-Difluoro-3-(1H-pyrrolo[2,3-b]pyridin-3-ylmethyl)-phenyl]-methanesulfonamide] |
| ≤ 10 µM | ≤ 10 µM | ≤ 10 µM |  |  |  | CS(=O)(=O)c1cccc(-c2cnc3[nH]cc(Cc4c(F)ccc(N)c4F)c3c2)c1 [Compound P-1614] |
|  | ≤ 10 µM |  |  |  | ≤ 10 µM | CS(=O)(=O)c1cccc(-c2cnc3[nH]cc(Cc4c(F)ccc(NC(=O)NC5CCCC5)c4F)c3c2)c1 [Compound P-1615, 1-Cyclopentyl-3-{2,4-difluoro-3-[5-(3-methanesulfonyl-phenyl)-1H-pyrrolo[2,3-b]pyridin-3-ylmethyl]-phenyl}-urea] |
|  | ≤ 10 µM |  |  |  |  | COC(=O)Nc1cccc(C(=O)c2c[nH]c3ncc(Cl)cc23)c1 [Compound P-1619] |
| ≤ 10 µM | ≤ 10 µM |  |  |  |  | NC(=O)c1cccc(-c2cnc3[nH]ccc3c2)c1 [Compound P-1622, 3-(1H-Pyrrolo[2,3-b]pyridin-5-yl)-benzamide] |
| ≤ 10 µM | ≤ 10 µM |  |  |  |  | O=C(c1c[nH]c2ccccc12)c1c[nH]c2ncc(Br)cc12 [Compound P-1624] |
|  | ≤ 10 µM |  |  |  |  | CCCn1cccc1C(c1c[nH]c2ncc(-c3cccnc3)cc12)n1ccc2cc(-c3cccnc3)cnc21 (stereo not shown) [Compound P-1686] |
